Measured values published in publication PMC6164331, “Synthesis, Evaluation for Cytotoxicity and Molecular Docking Studies of Benzo[c]furan-Chalcones for Potential to Inhibit Tubulin Polymerization and/or EGFR-Tyrosine Kinase Phosphorylation” (International Journal of Molecular Sciences, 2018).
Read-outs that look alike come from different tables or passages of the source. Starred links: 1 amine or outer side, 2 acyl side, 3 side chain; linkers in the order of their positions; H or OH if unused. Positions of bridges follow the written chain, without caps; N, C: chain ends. Non-standard residues stand in square brackets, D forms with d. Residues, ends and D or L forms follow the SMILES beside them. Chains are numbered I, II in the order given. Actinocin(9to1) = Cc1c2oc3c(C)ccc(C(=O)[*:1])c3nc-2c(C(=O)[*:2])c(N)c1=O; NMeV = CN[C@H](C(=O)O)C(C)C; Sar = CNCC(=O)O

Tests used:
MCF-7 cell line = assay: MTT cytotoxicity assay against the MCF-7 cell line; details: for IC50: read-out: MCF-7 Cell Line IC50 (μM) ± SD; for cytotoxicity against MCF-7 cells (in words): compared to actinomycin D
Procedure: The human breast cancer (MCF-7) cell line was maintained in culture flasks containing Dulbecco’s Modified Eagles Medium (DMEM). The media was supplemented with 1% antibiotics (100 µg/mL penicillin, 100 µg/mL streptomycin and 250 µg/L fungizone) and 10% heat-inactivated fetal bovine serum. […] The cells were sub-cultured every two-to-three days after the cells had formed a confluent monolayer.
The compounds were assessed at 0–100 µM. The control wells included vehicle treated cells exposed to 2% DMSO and the positive control, actinomycin D, with concentrations ranging between 5, 10, 25, and 50, and 100 µM. The microtitre plates were incubated for 48 h. After the 48 h incubation period the MTT reagent (10 µL) was added to a final concentration of 0.5 mg/mL and the plate was further incubated for another 4 h. After 4 h, 100 µL of the solubilisation solution was added to each well and the plate was allowed to stand overnight. Subsequently, the absorbance of the color complex was read at 550 nm with a reference wavelength set at 650 nm using a BIO-TEK Power-Wave XS multi-well plate reader (BioTech Instruments, Midrand, South Africa). The IC50 values of the compounds were calculated using OriginPro software (OriginLab Corporation, Northampton, MA, USA).

tubulin = tubulin (Sus scrofa, UniProt P02550+P02554); assay: Cell-free tubulin polymerization assay; format: biochemical; details: for IC50: colchicine as positive control, read-out: IC50 against tubulin polymerization; for inhibitory effect against tubulin polymerization (in words): compared to colchicine or to the other derivatives of the series
Chain of tubulin (P02550 whole entry): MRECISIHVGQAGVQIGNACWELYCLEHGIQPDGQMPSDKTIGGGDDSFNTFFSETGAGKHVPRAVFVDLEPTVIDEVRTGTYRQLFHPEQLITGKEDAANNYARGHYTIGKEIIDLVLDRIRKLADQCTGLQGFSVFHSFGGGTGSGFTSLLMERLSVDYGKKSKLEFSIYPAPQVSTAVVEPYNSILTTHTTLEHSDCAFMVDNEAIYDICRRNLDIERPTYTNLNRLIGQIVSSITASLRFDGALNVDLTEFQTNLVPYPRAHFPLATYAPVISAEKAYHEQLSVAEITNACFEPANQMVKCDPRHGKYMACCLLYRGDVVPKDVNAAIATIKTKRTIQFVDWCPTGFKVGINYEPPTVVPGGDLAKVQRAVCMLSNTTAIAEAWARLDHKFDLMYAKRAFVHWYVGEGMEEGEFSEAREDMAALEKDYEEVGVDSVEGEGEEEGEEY
Chain of tubulin (P02554 whole entry): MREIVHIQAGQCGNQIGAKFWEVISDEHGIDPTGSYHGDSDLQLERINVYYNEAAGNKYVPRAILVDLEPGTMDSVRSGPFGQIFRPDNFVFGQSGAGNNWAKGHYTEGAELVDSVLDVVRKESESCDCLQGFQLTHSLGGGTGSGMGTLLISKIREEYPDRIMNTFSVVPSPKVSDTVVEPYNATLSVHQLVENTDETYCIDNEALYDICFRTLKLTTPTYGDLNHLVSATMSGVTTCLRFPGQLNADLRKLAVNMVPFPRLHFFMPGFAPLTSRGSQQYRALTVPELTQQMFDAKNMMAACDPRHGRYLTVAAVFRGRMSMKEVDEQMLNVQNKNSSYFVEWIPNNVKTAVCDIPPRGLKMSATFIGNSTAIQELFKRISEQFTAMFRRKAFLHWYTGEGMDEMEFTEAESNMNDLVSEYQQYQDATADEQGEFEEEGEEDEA
Procedure: Tubulin polymerization assays were carried out using the tubulin polymerization assay kit (Cytoskeleton, Inc., Denver, CO, USA) following the instruction by the manufacturer.

EGFR-TK = target: T1, EGFR-TK (Homo sapiens, UniProt P00533); assay: EGFR-TK phosphorylation inhibition assay (ELISA); format: biochemical; details: purified EGFR
T1 construct: purchased Sigma-Aldrich, Bradford, UK
T1 sequence (P00533 25-1210): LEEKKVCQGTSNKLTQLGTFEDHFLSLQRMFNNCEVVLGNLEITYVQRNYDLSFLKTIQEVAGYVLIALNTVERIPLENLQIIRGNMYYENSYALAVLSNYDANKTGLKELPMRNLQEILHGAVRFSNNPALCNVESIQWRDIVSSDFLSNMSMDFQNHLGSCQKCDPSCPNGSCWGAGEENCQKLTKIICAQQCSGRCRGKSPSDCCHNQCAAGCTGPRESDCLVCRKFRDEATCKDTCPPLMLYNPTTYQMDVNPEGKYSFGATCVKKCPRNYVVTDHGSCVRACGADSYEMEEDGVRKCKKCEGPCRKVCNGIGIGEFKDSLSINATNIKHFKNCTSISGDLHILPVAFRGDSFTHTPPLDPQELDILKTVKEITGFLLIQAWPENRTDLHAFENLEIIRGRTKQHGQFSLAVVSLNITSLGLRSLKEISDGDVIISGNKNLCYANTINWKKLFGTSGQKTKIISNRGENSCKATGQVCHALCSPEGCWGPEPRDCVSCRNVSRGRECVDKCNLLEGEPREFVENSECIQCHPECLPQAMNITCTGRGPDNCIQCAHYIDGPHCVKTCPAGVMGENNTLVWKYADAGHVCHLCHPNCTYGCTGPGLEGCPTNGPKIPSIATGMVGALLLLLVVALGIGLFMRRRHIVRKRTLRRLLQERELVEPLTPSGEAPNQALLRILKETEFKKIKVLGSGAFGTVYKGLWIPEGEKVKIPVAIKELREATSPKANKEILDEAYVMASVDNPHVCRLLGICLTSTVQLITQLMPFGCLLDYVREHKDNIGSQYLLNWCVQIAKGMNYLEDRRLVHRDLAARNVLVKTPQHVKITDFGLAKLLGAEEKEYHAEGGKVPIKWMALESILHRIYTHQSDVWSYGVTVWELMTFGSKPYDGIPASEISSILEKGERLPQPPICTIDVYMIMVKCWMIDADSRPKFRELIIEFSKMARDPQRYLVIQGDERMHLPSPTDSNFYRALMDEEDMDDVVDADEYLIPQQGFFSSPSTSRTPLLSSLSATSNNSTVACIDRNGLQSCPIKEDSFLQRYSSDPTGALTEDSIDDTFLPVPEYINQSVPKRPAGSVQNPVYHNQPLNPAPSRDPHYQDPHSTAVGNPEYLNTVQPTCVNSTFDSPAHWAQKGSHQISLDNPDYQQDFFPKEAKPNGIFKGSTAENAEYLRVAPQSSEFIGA
Procedure: The procedure was carried out according to the manufacturer’s protocol and referring to reported instructions as described in our previous investigation.

MCF-7 cells = assay: Annexin V-Cy3 SYTOX staining apoptosis assay (flow cytometry); format: cell-based, human; details: for viability at 1 µM: Homo sapiens, read-out: %Viable Cells (Q3)
Source text: Several distinctive modes of cell death such as apoptosis, necrosis, autophagy, and cornification exist and are characterized by differences in their morphology and their biochemical changes. […] We employed the Annexin V-Cy3 SYTOX apoptosis assay kit to distinguish between viable cells (Annexin V-negative; PI-negative), early apoptotic cells (Annexin V-positive; PI-negative), late apoptotic cells (Annexin V-positive; PI-positive) and unviable or necrotic cells (Annexin V-negative; PI-positive). The cells were analyzed by the flow cytometry, which is an important tool to evaluate the molecular and morphological events that take place during cell death and cell proliferation.
The percentage population of apoptotic cells were determined using Annexin V–Cy3 SYTOX apoptosis detection kit (Abcam, Milton, Cambridge, UK) according to the manufacturer’s instructions. […] The cells were incubated for 48 h and then stained with Annexin V–Cy3 SYTOX green dye. The cells were analyzed using BD Biosciences FACSAria III flow cytometer (BD Biosciences, San Jose, CA, USA).

Caspase-3 (Asp175) = assay: Caspase-3 activation colorimetric assay in MCF-7 cells; format: cell-based, human; details: 1 µM, 24 h, compared to 3i and actinomycin D
Procedure: Activation of caspases (caspase-2, 3, 6, 7, 8, 9, and 10) is a major biochemical feature that plays a central role in the morphological changes associated with apoptosis. Consequently, we evaluated compounds 3b and 3i for their potential to induce caspase-3 activation in the MCF-7 cells.
Caspase-3 activity was detected by means of Caspase-3 Colorimetric Assay Kit (Abcam, Cambridge, MA, USA). The cells were cultured in 24 well plates and treated for 24 h with 3b or 3i at a concentration of 1 µM against actinomycin D (1 µM) as a reference standard, respectively. The cells were then washed with PBS buffer and lysed on ice. The experiments were carried out according to the manufacturer’s instructions. Optical density was measured at absorbance of 450 nm using the BioTek microplate reader. The concentration of active Caspase-3 (Asp 175) were measured in duplicates and interpolated from the active caspase-3 (Asp 175) standard curve and corrected for sample dilution.

[1] = MTT, 48 h incubation, three individual experiments

IC50 (tubulin) [µM]	melting point [°C]	SMILES	IC50 (MCF-7 cell line; Homo sapiens, MCF7, 48 h) [µM]	other results
		O=C(/C=C/c1ccc(OC(F)(F)F)cc1)c1cc(Br)cc2cc(-c3ccccc3)oc12 [3e]	0.59 ± 0.21	
15.6		O=C(/C=C/c1ccccc1)c1cc(Br)cc2cc(-c3ccccc3)oc12 [3a]	48 ± 2.1	
67.4	216 to 217	COc1ccc(/C=C/C(=O)c2cc(Br)cc3cc(-c4ccc(OC)cc4)oc23)cc1 [3x]	69.1 ± 0.76	
77	243 to 245	O=C(/C=C/c1ccccc1)c1cc(Br)cc2cc(-c3cccc(F)c3)oc12 [3k]	23 ± 0.38	
13.2	239 to 242	O=C(/C=C/c1ccc(F)cc1)c1cc(Br)cc2cc(-c3ccc(F)cc3)oc12 [3g]	48.6 ± 2.1	cytotoxicity against MCF-7 cells (in words) (MCF-7 cell line; MTT): reduced cytotoxicity
23.3	224 to 226	O=C(/C=C/c1ccccc1)c1cc(Br)cc2cc(-c3ccc(F)cc3)oc12 [3f]	35.8 ± 1.2	
0.000176	186 to 187	O=C(/C=C/c1ccc(OC(F)(F)F)cc1)c1cc(Br)cc2cc(-c3cccc(F)c3)oc12 [3o, (E)-1-(5-Bromo-2-(3-fluorophenyl)benzofuran-7-yl)-3-(4-(trifluoromethoxy)phenyl)prop-2-en-1-one]	7.87 ± 0.25	IC50 (EGFR-TK): 0.12 ± 0.04 µM
	221 to 222	COc1ccc(/C=C/C(=O)c2cc(Br)cc3cc(-c4cccc(F)c4)oc23)cc1 [3n]	39.2 ± 0.42	inhibitory effect against tubulin polymerization (in words) (tubulin): Moderate activity
78	187 to 188	COc1ccc(-c2cc3cc(Br)cc(C(=O)/C=C/c4ccc(OC(F)(F)F)cc4)c3o2)cc1 [3y]	43.17 ± 0.28	
		Cc1c2oc3c(C)ccc(C(=O)N[C@@H]4C(=O)N[C@H](C(C)C)C(=O)N5CCC[C@H]5C(=O)N(C)CC(=O)N(C)[C@@H](C(C)C)C(=O)O[C@@H]4C)c3nc-2c(C(=O)N[C@@H]2C(=O)N[C@H](C(C)C)C(=O)N3CCC[C@H]3C(=O)N(C)CC(=O)N(C)[C@@H](C(C)C)C(=O)O[C@@H]2C)c(N)c1=O [Actinomycin D, reference compound] (I: T[dV]P[Sar][NMeV] / II: T[dV]P[Sar][NMeV]; ester I:1-I:C, II:1-II:C; linker I:N-II:N via Actinocin(9to1))	37.8 ± 1.3	viability at 1 µM (MCF-7 cells; MCF7, 48 h): 30.7%; %Early Apoptosis (Q4) (MCF-7 cells; MCF-7 cells, 1 µM, 48 h): 3.4%; %Late Apoptosis (Q2) (MCF-7 cells; MCF-7 cells, 1 µM, 48 h): 61.4%; %Necrosis (Q1) (MCF-7 cells; MCF-7 cells, 1 µM, 48 h): 4.5%; IC50 (EGFR-TK): 0.04 ± 0.03 µM
34.5	257 to 258	O=C(/C=C/c1ccc(Cl)cc1)c1cc(Br)cc2cc(-c3cccc(Cl)c3)oc12 [3r]	66.8 ± 0.84	
5.51e-05		COc1ccc(/C=C/C(=O)c2cc(Br)cc3cc(-c4ccc(F)cc4)oc23)cc1 [3i, (E)-1-(5-Bromo-2-(4-fluorophenyl)benzofuran-7-yl)-3-(4-methoxyphenyl)prop-2-en-1-one]	0.000355	viability at 1 µM (MCF-7 cells; MCF7, MCF-7 cells, 1 µM, 48 h): 32.2%; %Early Apoptosis (Q4) (MCF-7 cells; MCF-7 cells, 1 µM, 48 h): 3.1%; %Late Apoptosis (Q2) (MCF-7 cells; MCF-7 cells, 1 µM, 48 h): 61.7%; %Necrosis (Q1) (MCF-7 cells; MCF-7 cells, 1 µM, 48 h): 3.1%; IC50 (EGFR-TK): 0.09 ± 0.03 µM
0.71	214 to 215	COc1ccc(/C=C/C(=O)c2cc(Br)cc3cc(-c4cccc(Cl)c4)oc23)cc1 [3s]	2.69 ± 0.23	inhibitory effect against tubulin polymerization (in words) (tubulin): significant inhibitory effects
51.3	232 to 233	O=C(/C=C/c1ccc(F)cc1)c1cc(Br)cc2cc(-c3cccc(Cl)c3)oc12 [3q]	23.8 ± 0.29	
48.4	209 to 210	COc1ccc(-c2cc3cc(Br)cc(C(=O)/C=C/c4ccc(Cl)cc4)c3o2)cc1 [3w]	30.6 ± 0.35	
3.98	266 to 267	O=C(/C=C/c1ccc(F)cc1)c1cc(Br)cc2cc(-c3cccc(F)c3)oc12 [3l]	> 100	cytotoxicity against MCF-7 cells (in words) (MCF-7 cell line; MTT): inactive
0.0937	218 to 219	O=C(/C=C/c1ccccc1)c1cc(Br)cc2cc(-c3cccc(Cl)c3)oc12 [3p]	12.6 ± 0.23	inhibitory effect against tubulin polymerization (in words) (tubulin): significant inhibitory effects; IC50 (EGFR-TK): 0.17 ± 0.06 µM
10.2	234 to 235	O=C(/C=C/c1ccc(Cl)cc1)c1cc(Br)cc2cc(-c3cccc(F)c3)oc12 [3m]	14.8 ± 0.33	
	255 to 256	COc1ccc(-c2cc3cc(Br)cc(C(=O)/C=C/c4ccccc4)c3o2)cc1 [3u]	48.96 ± 0.3	
26.5		O=C(/C=C/c1ccc(F)cc1)c1cc(Br)cc2cc(-c3ccccc3)oc12 [3b]	0.55 ± 0.24	viability at 1 µM (MCF-7 cells; MCF7, MCF-7 cells, 1 µM, 48 h): 23.3%; %Early Apoptosis (Q4) (MCF-7 cells; MCF-7 cells, 1 µM, 48 h): 1.5%; %Late Apoptosis (Q2) (MCF-7 cells; MCF-7 cells, 1 µM, 48 h): 72%; %Necrosis (Q1) (MCF-7 cells; MCF-7 cells, 1 µM, 48 h): 3.2%; induction of apoptosis (in words) (MCF-7 cells; MCF-7 cells, 1 µM, 48 h, compared to 3i and actinomycin D): induced increased apoptosis; caspase-3 activation (in words) (Caspase-3 (Asp175)): does not induce significant caspase activation; IC50 (EGFR-TK): 0.17 ± 0.03 µM
0.0162	241 to 242	COc1ccc(-c2cc3cc(Br)cc(C(=O)/C=C/c4ccc(F)cc4)c3o2)cc1 [3v]	28.4 ± 0.46	IC50 (EGFR-TK): 0.15 ± 0.02 µM
26.4	242 to 245	O=C(/C=C/c1ccc(Cl)cc1)c1cc(Br)cc2cc(-c3ccccc3)oc12 [3c]	> 100	
1.33	231 to 233	O=C(/C=C/c1ccc(Cl)cc1)c1cc(Br)cc2cc(-c3ccc(F)cc3)oc12 [3h]	54.16 ± 0.4	cytotoxicity against MCF-7 cells (in words) (MCF-7 cell line; MTT): reduced cytotoxicity
34.5	206 to 208	COc1ccc(/C=C/C(=O)c2cc(Br)cc3cc(-c4ccccc4)oc23)cc1 [3d]	22.8 ± 0.86	

SMILES	IC50 (tubulin) [µM]	melting point [°C]	IC50 (MCF-7 cell line; Homo sapiens, MCF7, 48 h) [µM]	other results
O=C(/C=C/c1ccc(OC(F)(F)F)cc1)c1cc(Br)cc2cc(-c3ccc(F)cc3)oc12 [3j]	0.00885			IC50 (MCF-7 cell line; [1]): 16 ± 0.62 µM
O=C(/C=C/c1ccc(OC(F)(F)F)cc1)c1cc(Br)cc2cc(-c3cccc(Cl)c3)oc12 [3t]	2.83			IC50 (MCF-7 cell line; [1]): 26.6 ± 0.27 µM
